Laboratory results: article PMC12663368 (Nature Communications, 2025)

What was measured:
Type in all cases: cell-based
[1] = system: SARS-CoV-2 Wuhan-like Lineage A (Mpro Δ23G/T45I); conditions: for IC50: read-out: Mean of IC50 values ± SD
[2] = system: SARS-CoV-2 Wuhan-like Lineage B (Mpro M49L)
[3] = system: SARS-CoV-2 BA.5 Lineage C (Mpro S144A); conditions: for IC50: read-out: Mean of IC50 values ± SD
[4] = system: SARS-CoV-2 BA.5 Lineage D (Mpro P252L)
[5] = read-out: Mean of IC50 values ± SD

| Compound | Fold-change relative to wild-type [1] [fold] | IC50 [1] [µM] | Resistance level (class by IC50 fold-change) [2] | Fold-change relative to wild-type [3] [fold] | IC50 [3] [µM] | Fold-change relative to wild-type [4] [fold] | IC50 [4, 5] [µM] | Fold-change relative to wild-type [2] [fold] | IC50 [2, 5] [µM] | Resistance level (class by IC50 fold-change) [4] |
| --- | --- | --- | --- | --- | --- | --- | --- | --- | --- | --- |
| CC(C)(C)[C@H](NC(=O)C(F)(F)F)C(=O)N1C[C@H]2[C@@H]([C@H]1C(=O)N[C@H](C#N)C[C@@H]1CCNC1=O)C2(C)C [nirmatrelvir] | 0.18 | 1.4 ± 0.1 | no meaningful shift | 7.60 | 37 ± 0.9 | 3.83 | 18.6 ± 0.48 | – | – | – |
| Cn1cnc(Cn2c(=O)[nH]/c(=N\c3cc4cn(C)nc4cc3Cl)n(Cc3cc(F)c(F)cc3F)c2=O)n1 [ensitrelvir] | 32.06 | 16.7 ± 2.29 | – | 28.84 | 25.4 ± 8.74 | – | – | 60.08 | 31.2 ± 1.06 | no meaningful shift |
| remdesivir | – | – | – | – | – | 3.41 | – | – | – | – |
